# Test results reported in publication PMC13046583, “SRS143 a semi-synthetic analogue of andrographolide against house dust mite induced allergic asthma” (Naunyn-Schmiedeberg's Archives of Pharmacology, 2025).
# “Also recorded” adds a separate entry of the source.
# Assays:
# RBL-2H3 cells [1] = experiment: β-hexosaminidase release assay, IgE-FcεRI (DNP-IgE/DNP-BSA) stimulation; format: cell-based
# Description: The inhibitory activity of SRS143 and quercetin against the release of β-hexosaminidase from RBL-2H3 cells was evaluated according to the method reported previously (Lin et al. [2020]). Briefly, the cells were cultured in a 24-well cell culture plate (9 × 10^5/well, Becton–Dickinson Co., Franklin Lakes, NJ) with concentration ([…]) of mouse monoclonal anti-dinitrophenyl (DNP) IgE. After washing with PBS, SRS143 at various concentrations (0, 0.1, 1 and 10 μM)) or quercetin (30 μM) was added. After 60 min of incubation, DNP-labeled bovine serum albumin (DNP-labeled BSA, 50 ng/ml final concentration) was added, followed by 45 min of incubation. […] The reaction was stopped, and absorbance at 405 nm was measured using a microplate reader (Versamax).to assess beta-hexosaminidase activity, indicating enzyme subproduct levels. The results are expressed as percentage release of β-hexosaminidase activity amount by antigen (DNP-labeled BSA) alone.
# Mast cell degranulation is the key process in allergic asthma. […] The release was assessed with β-hexosaminidase assay whereby the amount β-hexosaminidase enzyme released correlates to histamine release by RBL-2H3 cells. […] The cell viability was measured at 24 h. […] We further measured the efficacy of SRS143 in a dose response study involving both efficacy and toxicity.
# [2] = test system: HDM-induced asthmatic BALB/c mice; experiment: House dust mite allergic asthma mouse model, BAL fluid total and differential cell counts; format: in vivo; settings: day 7-11, n = 6; for BAL fluid airway infiltration of all inflammatory leukocytes: 1 mg/kg i.p., positive control
# Description: (§1) BALB/c mice of 6–8 weeks of age were housed in the animal experimentation unit, Faculty of Medicine and Health Sciences, Universiti Putra Malaysia (UPM). Mice were kept in individually vented cages (1820 cm^3, not more than 6 mice per cage) with a bed of poplar shaving and free access to clean water and food. Mice were grouped into 8 groups of 6 mice per group – Group 1: Normal control, Group 2: HDM, Group 3: Vehicle (6% DMSO), Group 4: SRS143 (0.3 mg/kg), Group 5: SRS143 (1 mg/kg), Group 6: SRS143 (3 mg/kg), Group 7: dexamethasone (1 mg/kg), Group 8: andrographolide (1 mg/kg). Throughout the study, both experimental and control mice were kept under appropriate conditions (22 ± 2 °C temperature, and 55 ± 10% relative humidity). The mice were maintained under a 12-h light-darkness cycle.
# Allergic asthma was induced using house dust mite (Dermatophagoides pteronyssinus, Lot Number: 253983, Greer Laboratories, Lenoir, USA). The HDM was dissolved and prepared to a concentration of 5000 µg/mL in PBS, and then it was aliquoted and frozen (−20 °C) for further use. A 14-day HDM model was used to induce asthma in Balb/c mice (Lim et al. [2016]). The animals were sub-anesthetized using a cocktail of ketamine (50 mg/kg) and xylazine (3.3 mg/kg) for the intranasal HDM sensitization and challenged protocol. Briefly, the induction involved initial intranasal administration of 100 μg HDM extract (10 μL per nostril) on day 0, and subsequent administration of 10 μg of HDM (10 μL per nostril) on day 7—11. Mice were treated with SRS143 at doses of 0.3, 1, or 3 mg/kg, or with dexamethasone (1 mg/kg) or andrographolide (1 mg/kg). All treatments were administered at a constant volume of 10 mL/kg. Bronchoalveolar lavage (BAL) fluid collection was conducted on day 14.
# Fig. 3 HDM-asthma induction protocol. Animals were intranasally (i.n.) sensitized using 100 μg of house dust mite (HDM) on day 0, this was followed by daily HDM intranasal challenge (10 μg) on day 7 −11. […]
# BAL fluid total and differential cell counts were determined as described (Matsuda et al. [1994]).
# RBL-2H3 cells [3] = experiment: β-hexosaminidase release assay, calcium ionophore A23187 stimulation; format: cell-based
# Description: (§2) The inhibitory activity of SRS143 and quercetin against the release of β-hexosaminidase from RBL-2H3 cells was evaluated according to the method reported previously (Lin et al. [2020]). Briefly, the cells were cultured in a 24-well cell culture plate (9 × 10^5/well, Becton–Dickinson Co., Franklin Lakes, NJ) with concentration ([…]) of mouse monoclonal anti-dinitrophenyl (DNP) IgE. After washing with PBS, SRS143 at various concentrations (0, 0.1, 1 and 10 μM)) or quercetin (30 μM) was added. After 60 min of incubation, DNP-labeled bovine serum albumin (DNP-labeled BSA, 50 ng/ml final concentration) was added, followed by 45 min of incubation. The supernatant (50 μl) was mixed with 100 μl of a 0.1 M citrate buffer (pH 4.5) containing 1 mM […] and the mixture was incubated in a 96-well plate at 37 °C for 60 min. For the calcium ionophore stimulation method, CaI A23187 was added at 5 µM to induce degranulation. Each well was replaced with 0.4 mL of MEM media and 100 µL of MTT solution to evaluate cell viability using MTT assay. Supernatants from CaI A23187-induced degranulated cells were collected, centrifuged, and reacted with PNAG in citrate buffer at 37℃ for 1 h. The reaction was stopped, and absorbance at 405 nm was measured using a microplate reader (Versamax).to assess beta-hexosaminidase activity, indicating enzyme subproduct levels. The results are expressed as percentage release of β-hexosaminidase activity amount by antigen (DNP-labeled BSA) alone.
# (§3) Mast cell degranulation is the key process in allergic asthma. To induce mast cell degranulation process in RBL-2H3 cells, the cells were sensitized and challenged with DNP-labelled specific antigen IgE. Alternatively, the mast cells were induced with calcium ionophore A23187 to trigger direct degranulation independent of activation of IgE. The release was assessed with β-hexosaminidase assay whereby the amount β-hexosaminidase enzyme released correlates to histamine release by RBL-2H3 cells. In the preliminary screening, single low dose of 10 µM of AGP and its derivatives were applied to the calcium ionophore activated cells for a short duration of 1 h. Quercetin as positive control was also applied at a higher dose of 50 µM. For cell viability assay, the cells were washed and replenished with fresh medium supplemented with 15% FBS after 1 h of treatment. The cell viability was measured at 24 h. […] Given close to eightfold improved potency in inhibition of mast degranulation (Fig. 4A, B and C). We further measured the efficacy of SRS143 in a dose response study involving both efficacy and toxicity.
# [4] = Cell viability (MTT) assay; format: cell-based; settings: rat, RBL-2H3 cells, 1 h treatment, washed, viability measured at 24 h
# Description: (§4) RBL-2H3 cells were maintained in Minimum Essential Media (MEM, ThermoFischer, Grand Island, NY), supplemented with 15% heat-inactivated FBS, 100 U/mL of penicillin and 100 µg/mL of streptomycin. The cytotoxicity effect of the SRS143 was carried out using the rapid colorimetric assay that measures the activity of mitochondrial dehydrogenase in living cells, which convert the pale yellow soluble tetrazolium salt MTT into a insoluble purple end product formazan.
# as §2, §3
# RBL-2H3 cells [5] = experiment: Cell viability (MTT) assay; format: cell-based
# Description: as §4, §2, §3
# [6] = test system: HDM-induced asthmatic BALB/c mice; experiment: House dust mite allergic asthma mouse model, airway hyperresponsiveness to methacholine; format: in vivo; settings: methacholine 2-32 mg/ml, n = 6
# Description: as §1
# Allergic asthma was induced using house dust mite (Dermatophagoides pteronyssinus, Lot Number: 253983, Greer Laboratories, Lenoir, USA). The HDM was dissolved and prepared to a concentration of 5000 µg/mL in PBS, and then it was aliquoted and frozen (−20 °C) for further use. A 14-day HDM model was used to induce asthma in Balb/c mice (Lim et al. [2016]). The animals were sub-anesthetized using a cocktail of ketamine (50 mg/kg) and xylazine (3.3 mg/kg) for the intranasal HDM sensitization and challenged protocol. […]
# [7] = test system: HDM-induced asthmatic BALB/c mice; experiment: House dust mite allergic asthma mouse model, lung histology (H&E, PAS); format: in vivo
# Description: as §1
# Allergic asthma was induced using house dust mite (Dermatophagoides pteronyssinus, Lot Number: 253983, Greer Laboratories, Lenoir, USA). The HDM was dissolved and prepared to a concentration of 5000 µg/mL in PBS, and then it was aliquoted and frozen (−20 °C) for further use. […]
# Isolated lungs were fixed in 10% neutral formalin and processed. […] (5 µm) were stained with H&E for inflammatory cell infiltration and Periodic Acid Schiff […] stain (PAS) for mucus production. Quantitative analysis under a light microscope was then performed. […]
# Akt phosphorylation = experiment: Immunoblotting of Akt phosphorylation in IgE-FcεRI activated mast cells; format: cell-based; settings: IgE-FcεRI activated RBL-2H3 cells, 0.1, 1 and 10 µM, n = 3
# Description: Nuclear proteins of RBL-2H3 cells (10 µg per lane) were separated by 10% SDS-PAGE and immunoblots were developed as described (Matsuda et al. [1994]). Immunoblots were probed with anti-AKT and anti-β-actin antibodies (all from Cell Signalling Technology, Beverly, MA).
# [8] = Rattus norvegicus, 10 µM, 1 h, calcium ionophore A23187 activated RBL-2H3 cells, read-out: Inhibition of β-Hexosaminidase Enzyme Release (%)
smiles,measurement,setting,value
"C=C1CC[C@@H]2[C@](C)(CO)[C@H](O)CC[C@@]2(C)[C@@H]1C/C=C1/C(=O)OC[C@H]1O [AGP, andrographolide]",In vitro antihistamine activity,RBL-2H3 cells [1]; DNP-IgE activated RBL-2h3 cells,did not show any in vitro antihistamine activity
same,BAL fluid airway infiltration of all inflammatory leukocytes,[2],showed inhibition
same,Inhibition of β-Hexosaminidase Enzyme Release (%),"RBL-2H3 cells [3]; 10 µM, 1 h, calcium ionophore A23187 activated RBL-2H3 cells",low percentage inhibition level
same,inhibition at 10 µM,RBL-2H3 cells [3]; [8],11.1 ± 5.7%
same,In vitro antihistamine activity,RBL-2H3 cells [3]; calcium ionophore activated RBL-2h3 cells,did not show any in vitro antihistamine activity
same,"viability at 1 h, 10 µM",[4],81.3%
"C=C1CCC2C(C)(CO)C(O)CCC2(C)C1C=CC1=CCOC1=O (centres unmarked) [DDAG, 14-deoxy-11,12-didehydroandrographolide]",Viability of RBL-2H3 Cells (%),"RBL-2H3 cells [5]; 10 µM, 1 h treatment, washed, viability measured at 24 h",99.6%
"C[C@@H]1C[C@H]2[C@@H]3CCC4=CC(=O)C=C[C@]4(C)[C@@]3(F)[C@@H](O)C[C@]2(C)[C@@]1(O)C(=O)CO [Dexamethasone, dexamethasone, reference compound]",BAL fluid airway infiltration of all inflammatory leukocytes,[2],showed inhibition
"O=c1c(O)c(-c2ccc(O)c(O)c2)oc2cc(O)cc(O)c12 [Quercetin, quercetin, reference compound]",inhibition at 50 µM,"RBL-2H3 cells [3]; Rattus norvegicus, 50 µM, 1 h, calcium ionophore A23187 activated RBL-2H3 cells, read-out: Inhibition of β-Hexosaminidase Enzyme Release (%)",78.8 ± 8.5%
same,"viability at 1 h, 50 µM",[4]; 50 µM,106%
"C=C1CCC2C3(C)COC(c4ccccc4)OC3CCC2(C)C1C/C=C1/C(=O)OCC1OC(C)=O (centres unmarked) [SRS143, 3,19-Benzylidene-14-acetylandrographolide]",Airway resistance (RI) in response to methacholine,[6]; 1 and 3 mg/kg i.p.,remarkable decrease
same,Dynamic compliance (Cdyn) in response to methacholine,[6]; SRS143 i.p.,no significant changes
same,Peribronchial and perivascular inflammatory cellular infiltration in lung sections (H&E),"[7]; 0.3, 1, 3 mg/kg i.p., day 7-11",dose-dependently decreased
same,"PAS-positive cells score (mucus, goblet metaplasia)","[7]; SRS143 i.p., HDM sensitized and challenged mice",between mild to no observable goblet metaplasia
same,IC50,"RBL-2H3 cells [1]; Rattus norvegicus, RBL-2H3, IgE-FceRI stimulation, 1 h (Fig. 4C), 50% mark on concentration axis, read-out: IC50, inhibition of β-hexosaminidase release",6.5 µM
same,"BAL fluid total cells, macrophage, neutrophil, eosinophil and lymphocyte infiltration","[2]; 0.3, 1, 3 mg/kg i.p. 2 h before HDM challenge, vs HDM group",significant reduction; also recorded: dose-dependently reduced
same,Levels of phosphorylated-Akt,Akt phosphorylation,decrease significantly at the highest dose of 10 μM
same,Improved potency in inhibition of mast degranulation,"RBL-2H3 cells [3]; 10 µM screening, the comparator is not given, presumably AGP",eightfold
same,inhibition at 30 µM,"RBL-2H3 cells [3]; Rattus norvegicus, RBL-2H3, 30 µM, 1 h, dose-response study (Fig. 4B), read-out: Inhibition of enzyme release",~97%
same,IC50,"RBL-2H3 cells [3]; Rattus norvegicus, RBL-2H3, calcium ionophore A23187 stimulation, 1 h (Fig. 4B), read-out: IC50, inhibition of β-hexosaminidase release",6.5 µM
same,inhibition at 10 µM,RBL-2H3 cells [3]; [8],85.2 ± 3.1%
same,"viability at 1 h, 10 µM",[4],107%
same,Cytotoxicity on RBL-2H3 cells,"RBL-2H3 cells [5]; 1 h, 24 h, and 24 h after washing at 1 h",only toxic if applied at the highest concentration of 100 µM
